ChEMBL document CHEMBL1140644, “New modifications to the area of pyrazole-naphthyl urea based p38 MAP kinase inhibitors that bind to the adenine/ATP site” (Bioorg Med Chem Lett, 2007)
Calls of active or inactive are those of the source. The rule behind the calls is not given here.

How the values were obtained:
Blood = assay: Inhibition of LPS-induced TNFalpha production in human whole blood; assay type: functional, tissue-based
Mus musculus [1] = assay: Inhibition of LPS-induced TNFalpha production in mouse at 10 mg/kg after 1 hr; assay type: functional
THP-1 = assay: Inhibition of LPS-induced TNFalpha production in THP1 cells; assay type: functional, cell-based; details: Homo sapiens
Mus musculus [2] = assay: Inhibition of LPS-induced TNFalpha production in mouse at 3 mg/kg after 1 hr; assay type: functional
[3] = Lipophilicity, log D at pH 7.4; assay type: physicochemical; details: buffer
Homo sapiens = organism: Homo sapiens; assay: Protein binding in human plasma by equilibrium dialysis; details: read-out: PPB
[4] = molecular target: Tyrosine-protein kinase Lyn (Homo sapiens, UniProt P07948); assay: Inhibition of Lyn
[5] = molecular target: Tyrosine-protein kinase ABL1 (Homo sapiens, UniProt P00519); assay: Inhibition of Abl
[6] = molecular target: Proto-oncogene tyrosine-protein kinase Src (Homo sapiens, UniProt P12931); assay: Inhibition of Src
[7] = molecular target: RAF proto-oncogene serine/threonine-protein kinase (Homo sapiens, UniProt P04049); assay: Inhibition of cRaf
[8] = molecular target: Mitogen-activated protein kinase 9 (Homo sapiens, UniProt P45984); assay: Inhibition of Jnk2
Mitogen-activated protein kinase 9, sequence (P45984 whole entry): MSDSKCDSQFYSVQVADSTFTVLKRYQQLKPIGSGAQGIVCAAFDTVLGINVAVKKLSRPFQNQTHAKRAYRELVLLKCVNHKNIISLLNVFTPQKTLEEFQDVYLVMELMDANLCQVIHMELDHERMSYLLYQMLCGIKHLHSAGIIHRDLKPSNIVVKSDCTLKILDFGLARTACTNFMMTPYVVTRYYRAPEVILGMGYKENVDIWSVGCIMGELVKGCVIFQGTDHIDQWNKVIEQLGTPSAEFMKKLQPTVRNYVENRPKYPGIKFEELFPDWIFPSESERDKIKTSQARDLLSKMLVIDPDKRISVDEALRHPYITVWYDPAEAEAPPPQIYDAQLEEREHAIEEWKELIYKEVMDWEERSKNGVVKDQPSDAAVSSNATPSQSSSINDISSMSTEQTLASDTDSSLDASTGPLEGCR

Tyrosine-protein kinase ABL1, sequence (P00519 whole entry): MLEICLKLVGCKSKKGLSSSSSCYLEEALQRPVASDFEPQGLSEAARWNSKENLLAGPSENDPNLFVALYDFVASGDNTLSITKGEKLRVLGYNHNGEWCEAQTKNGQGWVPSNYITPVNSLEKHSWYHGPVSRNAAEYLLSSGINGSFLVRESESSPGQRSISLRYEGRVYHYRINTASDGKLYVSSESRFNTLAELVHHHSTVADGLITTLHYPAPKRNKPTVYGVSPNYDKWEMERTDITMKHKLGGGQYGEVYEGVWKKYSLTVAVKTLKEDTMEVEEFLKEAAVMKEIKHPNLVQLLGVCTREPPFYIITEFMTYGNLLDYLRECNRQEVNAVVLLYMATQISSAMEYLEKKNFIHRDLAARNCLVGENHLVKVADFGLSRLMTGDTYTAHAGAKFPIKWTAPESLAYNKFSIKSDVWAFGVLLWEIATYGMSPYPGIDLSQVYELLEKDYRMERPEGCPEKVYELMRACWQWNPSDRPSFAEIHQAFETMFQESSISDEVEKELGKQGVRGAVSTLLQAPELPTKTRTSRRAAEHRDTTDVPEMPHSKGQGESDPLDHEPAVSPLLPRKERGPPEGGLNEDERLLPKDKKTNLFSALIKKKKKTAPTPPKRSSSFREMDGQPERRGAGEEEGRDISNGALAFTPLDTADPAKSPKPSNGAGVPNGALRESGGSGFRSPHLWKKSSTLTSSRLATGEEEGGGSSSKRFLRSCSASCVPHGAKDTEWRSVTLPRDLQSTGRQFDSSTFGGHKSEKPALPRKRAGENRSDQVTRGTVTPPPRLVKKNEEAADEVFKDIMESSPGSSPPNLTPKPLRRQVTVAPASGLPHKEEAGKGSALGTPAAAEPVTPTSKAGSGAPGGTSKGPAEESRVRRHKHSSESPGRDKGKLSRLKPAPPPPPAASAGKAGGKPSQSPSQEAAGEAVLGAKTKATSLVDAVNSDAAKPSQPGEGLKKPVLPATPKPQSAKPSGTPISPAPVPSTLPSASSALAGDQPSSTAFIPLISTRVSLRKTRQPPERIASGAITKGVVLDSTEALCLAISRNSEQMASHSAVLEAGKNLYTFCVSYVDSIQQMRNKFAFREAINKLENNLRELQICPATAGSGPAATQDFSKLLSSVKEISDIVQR
Proto-oncogene tyrosine-protein kinase Src, sequence (P12931 2-536 limits assumed): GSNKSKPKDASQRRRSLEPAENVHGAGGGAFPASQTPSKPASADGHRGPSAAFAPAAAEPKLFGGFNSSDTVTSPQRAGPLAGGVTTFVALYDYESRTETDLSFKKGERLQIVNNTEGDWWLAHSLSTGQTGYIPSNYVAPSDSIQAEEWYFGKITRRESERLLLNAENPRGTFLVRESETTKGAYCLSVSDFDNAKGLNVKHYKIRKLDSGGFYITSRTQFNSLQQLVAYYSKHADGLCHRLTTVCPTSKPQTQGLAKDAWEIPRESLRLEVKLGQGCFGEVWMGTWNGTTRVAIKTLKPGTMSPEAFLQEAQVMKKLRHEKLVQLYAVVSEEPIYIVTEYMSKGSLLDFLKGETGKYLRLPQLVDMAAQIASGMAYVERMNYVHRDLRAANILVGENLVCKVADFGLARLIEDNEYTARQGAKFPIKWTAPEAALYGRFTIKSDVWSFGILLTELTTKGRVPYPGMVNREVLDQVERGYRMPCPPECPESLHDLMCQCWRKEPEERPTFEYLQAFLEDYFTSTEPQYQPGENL
RAF proto-oncogene serine/threonine-protein kinase, sequence (P04049 whole entry): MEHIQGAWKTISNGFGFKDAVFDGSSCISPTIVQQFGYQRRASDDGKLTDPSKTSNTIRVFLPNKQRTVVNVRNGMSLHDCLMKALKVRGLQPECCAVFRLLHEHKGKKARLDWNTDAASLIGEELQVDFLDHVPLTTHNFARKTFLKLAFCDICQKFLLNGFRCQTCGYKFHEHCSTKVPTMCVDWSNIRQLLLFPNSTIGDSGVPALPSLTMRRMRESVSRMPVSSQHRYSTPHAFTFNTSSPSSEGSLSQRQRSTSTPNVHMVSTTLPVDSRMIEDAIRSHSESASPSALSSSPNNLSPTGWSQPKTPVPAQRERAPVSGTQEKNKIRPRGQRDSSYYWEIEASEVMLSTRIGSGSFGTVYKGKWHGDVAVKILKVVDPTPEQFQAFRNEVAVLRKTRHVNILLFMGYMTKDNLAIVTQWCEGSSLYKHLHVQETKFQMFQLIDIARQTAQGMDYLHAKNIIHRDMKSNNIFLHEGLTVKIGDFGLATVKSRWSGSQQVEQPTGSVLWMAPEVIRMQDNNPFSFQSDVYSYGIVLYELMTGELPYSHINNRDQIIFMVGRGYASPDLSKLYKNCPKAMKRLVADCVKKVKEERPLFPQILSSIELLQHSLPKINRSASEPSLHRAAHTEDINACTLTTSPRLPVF
Tyrosine-protein kinase Lyn, sequence (P07948 whole entry): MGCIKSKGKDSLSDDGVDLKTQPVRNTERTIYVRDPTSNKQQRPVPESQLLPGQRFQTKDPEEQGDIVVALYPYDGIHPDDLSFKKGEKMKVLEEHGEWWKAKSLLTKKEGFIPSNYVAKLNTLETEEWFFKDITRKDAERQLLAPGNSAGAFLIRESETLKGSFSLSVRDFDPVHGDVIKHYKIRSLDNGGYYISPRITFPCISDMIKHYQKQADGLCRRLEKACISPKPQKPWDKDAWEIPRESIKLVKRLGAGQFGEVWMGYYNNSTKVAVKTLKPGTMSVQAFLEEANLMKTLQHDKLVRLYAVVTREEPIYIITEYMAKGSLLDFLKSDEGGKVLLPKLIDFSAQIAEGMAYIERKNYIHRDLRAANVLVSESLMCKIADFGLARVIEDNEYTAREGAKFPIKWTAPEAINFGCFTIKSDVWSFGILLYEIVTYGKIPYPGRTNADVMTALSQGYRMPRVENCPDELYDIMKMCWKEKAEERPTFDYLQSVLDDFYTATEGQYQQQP

| IC50 (Blood) [nM] | IC50 (THP-1) [nM] | Structure (SMILES) | other results |
| --- | --- | --- | --- |
| 9200 | 104 | Cc1ccc(-n2nc(C(C)(C)C)cc2NC(=O)Nc2ccc(-c3ccc(CN(C)C)cc3)c3ccccc23)cc1 |  |
| 1700 | 56 | Cc1ccc(-n2nc(C(C)(C)C)cc2NC(=O)Nc2ccc(-c3ccc(CCN4CCOCC4)cc3)c3ccccc23)cc1 |  |
| 3900 | 56 | Cc1ccc(-n2nc(C(C)(C)C)cc2NC(=O)Nc2ccc(-c3cccc(CN4CCOCC4)c3)c3ccccc23)cc1 |  |
| 230 | 9 | Cc1ccc(-n2nc(C(C)(C)C)cc2NC(=O)Nc2ccc(-c3ccc(CN4CCOCC4)nc3)c3ccccc23)cc1 | IC50 [4]: 1000 nM; IC50 [5]: 1000 nM; IC50 [6]: 1000 nM; inhibition in vivo at 10 mg/kg (Mus musculus [1]): 74%; Activity (Mus musculus [2]): inactive; IC50 [7]: 400 nM; IC50 [8]: 2 nM; logD [3]: 5.2 |
|  | 390 | Cc1ccc(-n2nc(C(C)(C)C)cc2NC(=O)Nc2ccc(-c3ccco3)c3ccccc23)cc1 |  |
| 90 | 11 | Cn1cc(-n2nc(C(C)(C)C)cc2NC(=O)Nc2ccc(-c3ccc(CN4CCOCC4)nc3)c3ccccc23)cn1 | inhibition in vivo at 3 mg/kg (Mus musculus [2]): 73% |

The next lines start with the compound.

| Structure (SMILES) | IC50 (Blood) [nM] | IC50 (THP-1) [nM] | other results |
| --- | --- | --- | --- |
| Cn1nc(C(C)(C)C)cc1NC(=O)Nc1ccc(-c2ccc(CN3CCOCC3)nc2)c2ccccc12 | 950 | 32 | Activity (Mus musculus [1]): inactive |
| Cc1ccc(-n2nc(C(C)(C)C)cc2NC(=O)Nc2ccc(-c3ccc(CN4CCOCC4)nc3)c3ccccc23)cn1 | 200 | 11 | inhibition in vivo at 10 mg/kg (Mus musculus [1]): 86%; inhibition in vivo at 3 mg/kg (Mus musculus [2]): 50% |
| Cc1ccc(-n2nc(C(C)(C)C)cc2NC(=O)Nc2ccc(-c3cccc(N4CCOCC4)c3)c3ccccc23)cc1 | > 15000 | 1350 |  |
| Cc1ccc(-n2nc(C(C)(C)C)cc2NC(=O)Nc2ccc(-c3ccc(CN4CCN(C)CC4)cc3)c3ccccc23)cc1 | 3600 | 46 |  |
| Cc1ccc(-n2nc(C(C)(C)C)cc2NC(=O)Nc2cccc3ccccc23)cc1 | > 15000 | 320 |  |
| Cc1ccc(-n2nc(C(C)(C)C)cc2NC(=O)Nc2ccc(-c3ccc(CN4CCOCC4)cn3)c3ccccc23)cc1 | 590 | 26 | logD [3]: 5.2 |
| Cc1ncc(-n2nc(C(C)(C)C)cc2NC(=O)Nc2ccc(-c3ccc(CN4CCOCC4)nc3)c3ccccc23)cn1 | 160 | 14 | fraction unbound (Homo sapiens): < 0.03; inhibition in vivo at 10 mg/kg (Mus musculus [1]): 95%; inhibition in vivo at 3 mg/kg (Mus musculus [2]): 85% |
| Cc1ccc(-n2nc(C(C)(C)C)cc2NC(=O)Nc2ccc(-c3ccc(CN4CCOCC4)o3)c3ccccc23)cc1 | 6400 | 70 |  |
| Cc1ccc(-n2nc(C(C)(C)C)cc2NC(=O)Nc2ccc(-c3ccccc3)c3ccccc23)cc1 | > 15000 | 1430 |  |
| Cc1ccc(-n2nc(C(C)(C)C)cc2NC(=O)Nc2ccc(-c3ccc(CN4CCOCC4)cc3)c3ccccc23)cc1 | 1100 | 36 |  |
| Cc1ccc(-n2nc(C(C)(C)C)cc2NC(=O)Nc2ccc(OCCN3CCOCC3)c3ccccc23)cc1 [DORAMAPIMOD] |  |  | inhibition in vivo at 10 mg/kg (Mus musculus [1]): 63%; logD [3]: 4.3 |
| Cc1ccc(-n2nc(C(C)(C)C)cc2NC(=O)Nc2ccc(-c3ccc(N4CCOCC4)cc3)c3ccccc23)cc1 | > 15000 | 470 |  |
